Laboratory results: patent publication US9169519B2, “SUMO as a marker of cancer development and target for cancer therapy” (Duke University, priority 2010, dated 2015)

Tested on: F98 rat glioblastoma cells
Test: 3H-thymidine incorporation into DNA (DNA synthesis), with or without radiation
Type: cell-based
Conditions: 100 nM 4-HT versus vehicle, no radiation (FIG. 6B)
Experimental: To investigate whether DNA synthesis of glioblastoma cells is modified by SUMO conjugation, the effects of suppressing SUMO conjugation on the incorporation of ^3H-thymidine into DNA was evaluated. SUMO conjugation was suppressed by blocking its expression using a miRNA approach. To avoid the risk of adaptive processes taking place in cells where SUMO expression had been silenced during the long selection process for stably transfected cells, a 4-hydroxy tamoxifen (4-HT)-inducible lentiviral system was used to express designed miRNAs (Callus et al., Cell Death Diff. 15: 213-219 (2008)). Briefly, the 4-HT inducible lentiviral system utilizes two constructs and the UAS/GAL4 system. […]
The effect of SUMO1/2/3 miRNA expression on radiation induced impairment of DNA synthesis was investigated by measuring the uptake of ^3H-thymidine. […] Irradiated cells were detached with trypsin-EDTA (Fisher Scientific), counted, re-suspended in culture medium with supplements described above, and re-plated in a 96-well plate at a density of 10,000 cells per well. […] Cells were harvested 24 hr later following detachment with trypsin-EDTA, collected on filter paper, dried overnight, and immersed in scintillation cocktail (ICN Biochemicals), and counted for 10 min in a liquid scintillation counter. […]

## 4-hydroxy tamoxifen [4-HT]
  3H-thymidine incorporation into DNA: did not produce any major change
